Test results published in PubChem BioAssay AID449762 (Southern Research Specialized Biocontainment Screening …, 2010).
Inconclusive results are not listed.

test system: M. tuberculosis H37Rv growth inhibition, 7H9 media; experiment: M. tuberculosis growth inhibition, HTS (AID 449762); settings: not given;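 note: bacterial growth assessed after seven days of incubation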

| SMILES | IC50 |
| --- | --- |
| Clc1nc2c(-c3ccccc3)nnn2c2ccccc12 | 9.39 µM |
| CCCCn1c(O)c(/C=C2/C=CC=N2)c(=O)[nH]c1=O | 6.55 µM |
| CC(C)(C)C(=O)NC(=S)NNC(=O)c1sc2ccccc2c1Cl | 23.8 µM |
| COc1ccc(NC(=O)CSC2=C(C#N)C(c3ccco3)C(C(=O)Nc3nc4ccccc4s3)=C(C)N2)cc1 (stereo unspecified) | 5.57 µM |
| O=C(CCCCCNc1nc(=S)[nH]c2ccccc12)N1CCN(c2ccccn2)CC1 | 40.9 µM |
| N#CC(C(=O)Nc1ccccc1)=C1Nc2ccccc2N1 | 34.9 µM |
| CN(CC(=O)Nc1ccccc1Br)C(=O)c1cccnc1Nc1cccc(C(F)(F)F)c1 | 32 µM |
| CN(C(=O)c1cccc(Nc2ccc(-c3ccc4c(c3)OCCO4)nn2)c1)C1CCCCC1 | 50.8 µM |
| Nn1c(SCc2ccccc2)nc2ccccc21 | 28 µM |
| CCOc1cc(/C=C2\COc3ccccc3C2=O)cc(Br)c1OCC(=O)N(C)C | 2.75 µM |
| O=C(Nc1cccc(-c2nc3ccccc3s2)c1)c1cc(-n2cnnc2)ccc1Cl | 11.6 µM |
| CCOC(=O)N1CCN(C(=O)CSc2nnc(-c3ccc(Cl)s3)o2)CC1 | 13.1 µM |
| CCOc1ccc2nc(N/C(N)=N/C(=S)Nc3cccc(C)c3)nc(C)c2c1 | 5.4 µM |
| CC1CC2=C(CC1/C=N/NC(N)=S)C(C)(C)CCC2 (stereo unspecified) | 14.4 µM |
| COC(=O)c1ccc(C(=O)OC)c(NC(=O)CSc2cccc[n+]2[O-])c1 | 2.97 µM |
| CC1CCCC/C1=N\NC(=S)NCCc1ccccc1 (stereo unspecified) | 21.9 µM |
| COC(=O)[C@H](CCSC)NC(=O)N1CCN(c2cccc(C(F)(F)F)c2)CC1 | 14.4 µM |
| CCOc1ccc(C(=O)CCN2CCCCCC2)cc1 | 11.9 µM |
| Cc1cccc2c1N(CCCOc1ccc(C(C)(C)C)cc1)C(=O)C2=O | 17.3 µM |
| c1ccc(CCNc2ncnc3c2cnn3-c2ccccc2)cc1 | 22.1 µM |
| CCOC(=O)c1ccccc1NC(=O)COc1coc(CN2CCc3ccccc32)cc1=O | 17.9 µM |

| SMILES | IC50 |
| --- | --- |
| O=c1[nH]c2ccccc2c2oc(CCl)nc12 | 1.14 µM |
| Cc1ccc(NC(=O)C2=C(O)CCn3c2nc2ccccc23)cc1 | 1.21 µM |
| O=C(/C=C/c1ccc(O)c([N+](=O)[O-])c1)c1ccc2ccccc2c1 | 9.26 µM |
| Cc1ccc(C2=NNC3(CCOC(C)(C)C3)S2)cc1 (stereo unspecified) | 11.1 µM |
| O=C(CSc1nc2ccccc2c(=O)[nH]1)NCc1ccc(Cl)cc1 | 1.09 µM |
| COc1nn(-c2ccccc2)c(=O)c(Cl)c1Cl | 5.52 µM |
| NC1=NC[C@H](CC2CCCCC2)N1CCc1cc(C(F)(F)F)cc(C(F)(F)F)c1 | 8.9 µM |
| COc1cccc(NC(=O)CNC(=O)Cn2cnc3sc4c(c3c2=O)CCCC4)c1 | 36.6 µM |
| CC1CCC(NC(=O)c2cc3c(s2)CCCC3)CC1 (stereo unspecified) | 40.1 µM |
| Cc1sc2ncnc(N3CCC(C(=O)NCC(=O)Nc4ccc(F)c(F)c4)CC3)c2c1C | 37.9 µM |
| COCCCNC(=O)/C(C#N)=C/c1c(N2CCN(c3cccc(Cl)c3)CC2)nc2c(C)cccn2c1=O | 53.9 µM |
| C=CCNC(=O)c1onc(CCl)c1C(=O)OC | 1.66 µM |
| COc1cccc(-c2nnc(NC(=O)c3ccc(S(=O)(=O)N4CCOCC4)cc3)o2)c1 | 23.6 µM |
| CN1/C(=C\C(=O)C[n+]2ccc(C(=O)c3ccccc3)cc2)C(C)(C)c2ccccc21 | 7.85 µM |
| O=C(c1cc(COc2ccc(F)cc2F)on1)N1CCCC(c2ccccc2)C1 (stereo unspecified) | 17.6 µM |
| O=C(OCCN1C(=O)c2ccccc2C1=O)c1cc2ccccc2o1 | 12.2 µM |
| Cc1n[nH]c(=S)n1/N=C/c1cccc(OCc2ccccc2)c1 | 75.4 µM |
| COc1cc(NC(=O)c2cccs2)c(C(=O)OCC(=O)NCc2ccco2)cc1OC | 23.9 µM |
| C=C(C)C1Cc2c(C)nn(-c3nc(C)cc(C)n3)c2C1 (stereo unspecified) | 2.72 µM |
| CCOC(=O)CN[C@H]1CCC2C3CC=C4C[C@@H](O)CC[C@]4(C)C3CC[C@@]21C (stereo partly specified) | 1.41 µM |
| Cn1/c(=N/NC(=O)c2cccc(OC(F)F)c2)sc2ccccc21 | 2 µM |

| SMILES | IC50 |
| --- | --- |
| N#Cc1ccc(CN2CCN(CC(=O)NCCc3ccc(Cl)cc3Cl)CC2)cc1 | 43.1 µM |
| CCOC(=O)/C(=N/Nc1ccc(OC)cc1)N1CCCc2ccccc21 | 78.1 µM |
| COc1ccc(C(=O)c2c(C(F)(F)F)oc3c2C(=O)c2ccccc2C3=O)cc1OC | 12 µM |
| CCOCCN1CCN(c2c(CC)c(C)nc3cc(-c4cc(OC)cc(OC)c4)nn23)CC1 | 25.5 µM |
| COc1ccc(Cl)cc1C(=O)O/N=C(\N)c1ccccn1 | 25.4 µM |
| COc1ccccc1C(=O)NC(=Nc1nc2ccccc2o1)NC(=O)c1ccccc1OC | 96.3 µM |
| Oc1ccccc1/C=N/NC(=S)NC1CC2CC1C1C=CCC21 (stereo unspecified) | 11.1 µM |
| COc1ccc(N2CCN(C(=O)c3cc4c(C)nc5ccccc5c4o3)CC2)cc1 | 18.5 µM |
| Cc1cc(C)n2nc(N)c(N=Nc3ccccc3)c2n1 | 2.9 µM |
| Cc1ccc(C2(c3ccc(C)cc3)CC2C(=O)Nc2ccc([N+](=O)[O-])cc2O)cc1 (stereo unspecified) | 19.7 µM |
| CCN1/C(=C/C=C/c2oc3ccc(-c4ccccc4)cc3[n+]2CC)Oc2ccc(-c3ccccc3)cc21 | 3.74 µM |
| CCOC(=O)c1nnc(-c2ccccc2)nc1NCc1ccccc1 | 14.6 µM |
| O=c1cc(O)c2sc3nc(-c4cccnc4)cc(C(F)(F)F)c3c2[nH]1 | 15.6 µM |
| C#CCOC(=O)/C(=C/C=C/c1ccccc1)NC(=O)c1ccccc1 | 3.82 µM |
| CCCCCCCCn1c2c(c(=N)c3c1CCC3)CCCC2 | 19 µM |
| C/C(CC(=O)Nc1ccc2c(c1)OCCO2)=N\NC(=O)c1ccccc1F | 6.94 µM |
| Cc1ccc(/C=C/C(=O)N2CC(C)CC(C)C2)o1 (stereo unspecified) | 8.06 µM |
| CC(c1ccccc1)N1CCN(C(=O)CCl)CC1 (stereo unspecified) | 1.26 µM |
| CN(C)c1ccnc2c[cH-]cc12.[Fe].c1ccc(-[c-]2[c-](-c3ccccc3)[c-](-c3ccccc3)[c-](-c3ccccc3)[c-]2-c2ccccc2)cc1 (stereo unspecified) | 13.7 µM |
| CCSc1ccc2c(c1)N(CCCN1CCN(C)CC1)c1ccccc1S2 | 19.1 µM |
| CCCCOc1ccc(C(=O)N/N=C/c2ccc(OCCN3CCCCC3)c(OC)c2)cc1 | 28.8 µM |

| SMILES | IC50 |
| --- | --- |
| CCn1cc([N+](=O)[O-])c(C(=O)N2N=C(c3ccc4ccccc4c3)CC2c2ccccc2O)n1 (stereo unspecified) | 49.6 µM |
| C#CCOc1ccc2c(c1)c(C(C)=O)c(C)n2Cc1ccccc1 | 68.4 µM |
| CCCCCCCCSc1nnc(CSc2nc3nc(C)cc(C)n3n2)o1 | 1.05 µM |
| Cc1cc(O)c2c(c1)C(=O)c1cc(O)cc(O)c1C2=O | 91.5 µM |
| CCCn1c(CC)nc([N+](=O)[O-])c1S(=O)(=O)c1ccccc1 | 7.8 µM |
| CCN(CC)S(=O)(=O)c1ccc(/C=C/C(=O)OCC#N)cc1 | 6.59 µM |
| COc1ccc(-c2c(C#N)c(SCC(=O)c3cc4ccccc4oc3=O)nc(C)c2C(=O)Nc2ccccc2)cc1 | 45.9 µM |
| CC(=O)n1cc(N(C(=O)CCl)c2ccc(Cl)cc2)c2ccccc21 | 1.82 µM |
| Cc1ccc(Cn2nnnc2CN2CCC(c3nc4ccc(Cl)cc4[nH]3)CC2)cc1 | 26 µM |
| Cc1cccc(NC(=O)CCSc2nnc(Cc3ccccc3)o2)c1 | 17.1 µM |
| Cc1ccc(C2=NN(C)c3nc4ccccc4n3C2)cc1 | 20.4 µM |
| c1ccc(Nc2nc(N3CCCCC3)nc(N3CCNCC3)n2)cc1 | 46.1 µM |
| COc1ccc(SN=C2C(C)=CC(=O)C=C2C)cc1 | 11.9 µM |
| C/C(=N\NC(=O)c1nnn(-c2nonc2N)c1CN(C)c1ccccc1)c1ccccn1 | 8.5 µM |
| COc1ccc(-n2nc3c(c2NC(=O)CCl)CSC3)cc1 | 4.85 µM |
| COc1ccccc1N(O)C1CC(=O)N(c2ccc(Br)cc2)C1=O (stereo unspecified) | 16.8 µM |
| Cc1ccc(C)c(NC(=O)c2cc(-c3ccccc3)nn2-c2ccccc2)c1 | 34.9 µM |
| C=CCOC(=O)COc1ccc2c(C)c(CC)c(=O)oc2c1 | 1.08 µM |
| O=C(NCCc1ccc(Cl)cc1)c1ccc(CS(=O)Cc2ccc(Cl)cc2)o1 (stereo unspecified) | 37.7 µM |
| Cc1ccc(NN=C2c3ccccc3-c3ccccc32)cc1 | 45.5 µM |
| CCOc1cc(/C=N/Nc2nc(Nc3ccccc3)nc(N3CCCCC3)n2)ccc1OCC(=O)O | 7.04 µM |

same assay, conditions: measured here: IC90 growth inhibition

| SMILES | IC90 |
| --- | --- |
| Clc1nc2c(-c3ccccc3)nnn2c2ccccc12 | 16.6 µM |
| CCCCn1c(O)c(/C=C2/C=CC=N2)c(=O)[nH]c1=O | 17.1 µM |
